According to publication PMC3527108 (Journal of medicinal chemistry, 2012):
Read-outs that look alike come from different tables or passages of the source.

Assays:
mu opioid receptor (MOR) = mu opioid receptor (MOR) (Homo sapiens, UniProt P35372); assay: Competitive radioligand binding assay, MOR; settings: from Ki values
Caco-2 cells [1] = assay: Bidirectional transport in Caco-2 cells; assay type: in vitro ADME; settings: apical/basolateral, up to 2 h
[2] = tested on: antinociception (tail flick) in mice; assay: Warm-water tail flick test; assay type: in vivo; settings: morphine 10 mg/kg, dose up to 30 mg/kg
[3] = tested on: opioid-induced constipation in patients; settings: cited from earlier work; for patients with laxation within 4 hours after the first dose: clinical trial, subcutaneous
[4] = tested on: GI transit in morphine-pelleted mice; settings: cited from earlier work
Caco-2 cells [5] = settings: cited from earlier work
[6] = tested on: GI transit in morphine naive mice; settings: similar assay, similar dose (about 10 mg/kg); cited from earlier work
[7] = low due to significant hepatic first-pass; cited from earlier work

Chain of mu opioid receptor (MOR) (P35372 whole entry, species assumed): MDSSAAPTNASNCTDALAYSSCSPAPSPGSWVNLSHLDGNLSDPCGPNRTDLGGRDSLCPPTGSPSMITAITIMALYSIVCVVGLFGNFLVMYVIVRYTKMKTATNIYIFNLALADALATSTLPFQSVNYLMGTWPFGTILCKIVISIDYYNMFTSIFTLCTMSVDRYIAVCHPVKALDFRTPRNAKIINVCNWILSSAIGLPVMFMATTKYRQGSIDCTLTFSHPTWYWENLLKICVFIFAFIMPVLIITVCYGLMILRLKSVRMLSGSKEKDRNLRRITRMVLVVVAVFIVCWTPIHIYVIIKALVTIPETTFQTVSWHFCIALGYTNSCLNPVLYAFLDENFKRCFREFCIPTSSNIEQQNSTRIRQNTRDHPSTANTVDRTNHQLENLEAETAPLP

For O=C(N[C@@H]1CC[C@@]2(O)[C@H]3Cc4ccc(O)c5c4[C@@]2(CCN3CC2CC2)[C@H]1O5)c1ccnc(Cl)c1 [Compound 1, 17-Cyclopropylmethyl-3,14β-dihydroxy-4,5α-epoxy-6β-{[4′-(2′-chloropyridyl)]carboxamido}morphinan], which “MOR selectivity over DOR” value (mu opioid receptor (MOR)) is on record?
The value was “over 1000 fold”.

With Cc1cnccc1C(=O)N[C@@H]1CC[C@@]2(O)[C@H]3Cc4ccc(O)c5c4[C@@]2(CCN3CC2CC2)[C@H]1O5 [Compound 8, 17-Cyclopropylmethyl-3,14β-dihydroxy-4,5α-epoxy-6β-{[4′-(3′-methylpyridyl)]carboxamido}morphinan] as the compound, how does the “apparent permeability / bidirectional transport” value (Caco-2 cells [1]) read?
Its value is “low permeability”.

With O=C(CNC(=O)c1ccncc1)N[C@@H]1CC[C@@]2(O)[C@H]3Cc4ccc(O)c5c4[C@@]2(CCN3CC2CC2)[C@H]1O5 [Compound 12, 17-Cyclopropylmethyl-3,14β-dihydroxy-4,5α-epoxy-6β-{2′-[(pyridine-4′′-yl)carboxamido]acetamido}morphinan] as the compound, how does the “antagonism of antinociceptive effect of morphine” value [2] read?
The value was “no apparent antagonism effect”.

With C[N@+]1(CC2CC2)CC[C@]23c4c5ccc(O)c4O[C@H]2C(=O)CC[C@@]3(O)[C@H]1C5 [MNTX, methylnaltrexone] as the compound, how does the “efficiency to induce SBM” value [3] read?
The value was at most 62%.

What about the “patients with laxation within 4 hours after the first dose” value ([3]; placebo 14%) of the same compound?
The value was 62%.

And the “patients with laxation within 4 hours after the first dose” value ([3]; placebo 15%)?
Its value is 48%.

For O=C(N[C@@H]1CC[C@@]2(O)[C@H]3Cc4ccc(O)c5c4[C@@]2(CCN3CC2CC2)[C@H]1O5)c1ccncc1 [NAP, 17-cyclopropylmethyl-3, 14β-dihydroxy-4,5α-epoxy-6β-[(4’ -pyridyl)carboxamido]morphinan], which “ED50 in the GI transit assay” value ([4]; GI transit assay) is on record?
Its value is 8.8 µg/kg.

What about the incidence of diarrhea ([4]; high doses) of the same compound?
The incidence of diarrhea was “incidence of diarrhea associated with high doses”.

And the apparent permeability (Caco-2 cells [5])?
Its apparent permeability is “significantly low”.

What about the “effect of compound alone on intestinal motility” value [6] of the same compound?
Its value is “intestinal motility decreased”.

Which systemic bioavailability [7] does the source give for C=CCN1CC[C@]23c4c5ccc(O)c4O[C@H]2C(=O)CC[C@@]3(O)[C@H]1C5 [Naloxone] here?
The systemic bioavailability was ~ 2%.
